{"source": "patent US8273371B2", "about": "“Crystalline mesoporous oxide based materials useful for the fixation and controlled release of drugs” (priority 2003, dated 2012)", "origin": "cited, not measured here", "key": {"[1]": {"conditions": "from 50° C. to 130° C."}, "[2]": {"assay": "not given", "remark": "listed apart in the source"}, "[3]": {"conditions": "capsules with granulate of drug, surfactants, cyclodextrin, Avicel PH 101 and Primojel"}, "[4]": {"conditions": "ibuprofen loaded on mesoporous oxide material"}}, "note": "Values joined by “and” are separate entries in the source; they are usually repeats but may differ in a detail not shown here. Identical values can stand only once."}
{"smiles": "CCC(C)n1ncn(-c2ccc(N3CCN(c4ccc(OCC5COC(Cn6cncn6)(c6ccc(Cl)cc6Cl)O5)cc4)CC3)cc2)c1=O", "note": "(centres unmarked) [itraconazole]", "values": [{"measurement": "solubility in supercritical carbon dioxide", "setting": "[1]", "result": "relatively poor"}]}
{"smiles": "CC/C(=C(/CC)c1ccc(O)cc1)c1ccc(O)cc1", "note": "[diethylstilbestrol]", "values": [{"measurement": "solubility in water", "result": "virtually insoluble in water"}]}
{"smiles": "CS(=O)(=O)c1ccc([C@@H](O)[C@@H](CF)NC(=O)C(Cl)Cl)cc1", "note": "[florfenicol, D-(threo)-1-p-methylsulfonyl phenyl-2-dichloroacetamido-3-fluoro-1-propanol]", "values": [{"measurement": "oral bioavailability", "setting": "[2]", "result": "good oral bioavailability"}]}
{"smiles": "CC(C)(C)c1ccc(C(O)CCCN2CCC(C(O)(c3ccccc3)c3ccccc3)CC2)cc1", "note": "(centres unmarked) [terfenadine]", "values": [{"measurement": "water-solubility", "setting": "in water", "result": "less than 0.01 mg/ml"}, {"measurement": "drug release within 45 minutes", "setting": "[3]", "result": 90, "unit": "%"}]}
{"smiles": "CC(C)Cc1ccc(C(C)C(=O)O)cc1", "note": "(centres unmarked) [ibuprofen]", "values": [{"measurement": "drug release after 20 hours", "setting": "[4]; after 20 hours", "result": 60, "unit": "%"}, {"measurement": "drug release after 24 hours", "setting": "[4]; after 24 hours", "result": "55% and 68%"}, {"measurement": "maximum release at the third day", "setting": "[4]; third day", "result": 80, "unit": "%"}]}
